Data published in patent publication US20250353873A1, “COMPOUNDS AND METHODS FOR MODULATING APOE EXPRESSION” (Ionis Pharmaceuticals, Inc., priority 2024, published 2025).
Strand notation (5' to 3'): a small letter for the sugar, then the base; units joined by * are phosphorothioate-linked, units joined directly phosphodiester-linked; [ ] holds rarer units or linkages, { } end groups; capitals alone tell only the bases. [ms] = mesyl phosphoramidate linkage; e = 2'-O-(2-methoxyethyl) (MOE); [5mC] = 5-methylcytosine; d = 2'-deoxy (DNA)

What was measured:
human APOE RNA [1] = test: Activity in APOE C57BL/6NTac-Apoeem7250 knock-in mice, single ICV bolus, 16 weeks (Example 12); format: in vivo; details: single ICV bolus 300 μg, 16 weeks post treatment, normalized to mouse Ppia
Method: Modified oligonucleotides described above were tested in the APOE C57BL/6NTac-Apoeem7250 knock-in mouse model described above.
APOE C57BL/6NTac-Apoeem7250 knock-in mice were divided into groups of 3-4 mice each. Each mouse received a single intracerebroventricular (ICV) bolus of 300 μg of modified oligonucleotide. A group of 4 mice received a single ICV bolus with PBS as a negative control.
Sixteen weeks post treatment, mice were sacrificed and RNA was extracted from cortical brain tissue and spinal cord for quantitative real-time RT-PCR analysis of RNA expression of APOE using primer probe set RTS3073 (described herein above). APOE RNA levels were normalized to mouse Ppia. Mouse Ppia was amplified using primer probe set m_cyclo24 (described herein above). Results are presented as percent human APOE RNA relative to the amount of human APOE RNA in PBS treated animals, (% control). Each experiment is identified in separate tables below.

human APOE RNA [2] = test: Dose-dependent inhibition of human APOE RNA in HepG2 cells, electroporation, 24 hours (Example 6); format: cell-based
Method: Modified oligonucleotides selected from the examples above were tested at various doses in HepG2.
HepG2 cells plated at a density of 50,000 cells per well were treated by electroporation with various concentrations of modified oligonucleotide as specified in the tables below. […] APOE RNA levels were measured using the human primer probe set RTS3073 (described herein above). APOE RNA levels were normalized to human GAPDH. Human GAPDH was amplified using human primer probe set RTS 104 (described herein above). Results are presented as percent APOE RNA, relative to the amount of APOE RNA in untreated control cells (% UTC). The half maximal inhibitory concentration (IC50) of each modified oligonucleotide was calculated in GraphPad Prism 10 (GraphPad Software, San Diego, CA) and is also presented in the tables below.

Substance | APOE RNA (% control) Cortex (human APOE RNA [1]) [% control] | APOE RNA (% control) Spinal Cord (human APOE RNA [1]) [% control] | further results
1693046: 5-10-5 MOE gapmer CTTGGTGAATCTTTATTAAA, linkages ssssszzzzzsssssssss (antisense e[5mC]*eT*eT*eG*eG*dT[ms]dG[ms]dA[ms]dA[ms]dT[ms]d[5mC]*dT*dT*dT*dA*eT*eT*eA*eA*eA) [compound 1693046] | 106 | 80 | 
1693053: 5-10-5 MOE gapmer TTGGTGAATCTTTATTAAAC, linkages ssssszzzsssssssosss (antisense eT*eT*eG*eG*eT*dG[ms]dA[ms]dA[ms]dT*d[5mC]*dT*dT*dT*dA*dT*eTeA*eA*eA*e[5mC]) [compound 1693053] | 99 | 99 | 
1693055: 5-10-5 MOE gapmer TTGGTGAATCTTTATTAAAC, linkages sososzzzsssssssosss (antisense eT*eTeG*eGeT*dG[ms]dA[ms]dA[ms]dT*d[5mC]*dT*dT*dT*dA*dT*eTeA*eA*eA*e[5mC]) [compound 1693055] | 95 | 67 | 
1693056: 5-10-5 MOE gapmer TTGGTGAATCTTTATTAAAC, linkages ssosszzzssssszsosss (antisense eT*eT*eGeG*eT*dG[ms]dA[ms]dA[ms]dT*d[5mC]*dT*dT*dT*dA[ms]dT*eTeA*eA*eA*e[5mC]) [compound 1693056] | 105 | 118 | 
1693057: 5-10-5 MOE gapmer TTGGTGAATCTTTATTAAAC, linkages ssssszzzssssszsosss (antisense eT*eT*eG*eG*eT*dG[ms]dA[ms]dA[ms]dT*d[5mC]*dT*dT*dT*dA[ms]dT*eTeA*eA*eA*e[5mC]) [compound 1693057] | 125 | 101 | 
1693058: 5-10-5 MOE gapmer TTGGTGAATCTTTATTAAAC, linkages sssoszzzssssszsosss (antisense eT*eT*eG*eGeT*dG[ms]dA[ms]dA[ms]dT*d[5mC]*dT*dT*dT*dA[ms]dT*eTeA*eA*eA*e[5mC]) [compound 1693058] | 113 | 80 | 
1693059: 5-10-5 MOE gapmer TTGGTGAATCTTTATTAAAC, linkages ssssszzzssssszsssss (antisense eT*eT*eG*eG*eT*dG[ms]dA[ms]dA[ms]dT*d[5mC]*dT*dT*dT*dA[ms]dT*eT*eA*eA*eA*e[5mC]) [compound 1693059] | 89 | 98 | 
1693060: 5-10-5 MOE gapmer TTGGTGAATCTTTATTAAAC, linkages ssssszzzsssszzsosss (antisense eT*eT*eG*eG*eT*dG[ms]dA[ms]dA[ms]dT*d[5mC]*dT*dT*dT[ms]dA[ms]dT*eTeA*eA*eA*e[5mC]) [compound 1693060] | 93 | 93 | 
1693061: 5-10-5 MOE gapmer TTGGTGAATCTTTATTAAAC, linkages sssoszzzsssszzsssss (antisense eT*eT*eG*eGeT*dG[ms]dA[ms]dA[ms]dT*d[5mC]*dT*dT*dT[ms]dA[ms]dT*eT*eA*eA*eA*e[5mC]) [compound 1693061] | 91 | 99 | 
1693062: 5-10-5 MOE gapmer TTGGTGAATCTTTATTAAAC, linkages ssssozzzsssszzsssss (antisense eT*eT*eG*eG*eTdG[ms]dA[ms]dA[ms]dT*d[5mC]*dT*dT*dT[ms]dA[ms]dT*eT*eA*eA*eA*e[5mC]) [compound 1693062] | 98 | 110 | 
1693063: 5-10-5 MOE gapmer TTGGTGAATCTTTATTAAAC, linkages ssssszzzsssszzsssss (antisense eT*eT*eG*eG*eT*dG[ms]dA[ms]dA[ms]dT*d[5mC]*dT*dT*dT[ms]dA[ms]dT*eT*eA*eA*eA*e[5mC]) [compound 1693063] | 97 | 87 | 
1693064: 5-10-5 MOE gapmer ACTTGGTGAATCTTTATTAA, linkages soossssszzsssssosss (antisense eA*e[5mC]eTeT*eG*dG*dT*dG*dA[ms]dA[ms]dT*d[5mC]*dT*dT*dT*eAeT*eT*eA*eA) [compound 1693064] | 83 | 48 | 
1693065: 5-10-5 MOE gapmer ACTTGGTGAATCTTTATTAA, linkages soossssszzsssssssss (antisense eA*e[5mC]eTeT*eG*dG*dT*dG*dA[ms]dA[ms]dT*d[5mC]*dT*dT*dT*eA*eT*eT*eA*eA) [compound 1693065] | 82 | 46 | 
1693066: 5-10-5 MOE gapmer ACTTGGTGAATCTTTATTAA, linkages sssssssszzsssssooss (antisense eA*e[5mC]*eT*eT*eG*dG*dT*dG*dA[ms]dA[ms]dT*d[5mC]*dT*dT*dT*eAeTeT*eA*eA) [compound 1693066] | 88 | 73 | 
1693067: 5-10-5 MOE gapmer ACTTGGTGAATCTTTATTAA, linkages ssosssszzzszsssssss (antisense eA*e[5mC]*eTeT*eG*dG*dT*dG[ms]dA[ms]dA[ms]dT*d[5mC][ms]dT*dT*dT*eA*eT*eT*eA*eA) [compound 1693067] | 97 | 162 | 
1693068: 5-10-5 MOE gapmer ACTTGGTGAATCTTTATTAA, linkages sssossszzzszsssssss (antisense eA*e[5mC]*eT*eTeG*dG*dT*dG[ms]dA[ms]dA[ms]dT*d[5mC][ms]dT*dT*dT*eA*eT*eT*eA*eA) [compound 1693068] | 86 | 72 | 
1693069: 5-10-5 MOE gapmer ACTTGGTGAATCTTTATTAA, linkages ssssosszzzszsssssss (antisense eA*e[5mC]*eT*eT*eGdG*dT*dG[ms]dA[ms]dA[ms]dT*d[5mC][ms]dT*dT*dT*eA*eT*eT*eA*eA) [compound 1693069] | 78 | 66 | 
1693070: 5-10-5 MOE gapmer ACTTGGTGAATCTTTATTAA, linkages ssssssszzzszsssosss (antisense eA*e[5mC]*eT*eT*eG*dG*dT*dG[ms]dA[ms]dA[ms]dT*d[5mC][ms]dT*dT*dT*eAeT*eT*eA*eA) [compound 1693070] | 86 | 76 | 
1693071: 5-10-5 MOE gapmer ACTTGGTGAATCTTTATTAA, linkages ssssssszzzzzsssosss (antisense eA*e[5mC]*eT*eT*eG*dG*dT*dG[ms]dA[ms]dA[ms]dT[ms]d[5mC][ms]dT*dT*dT*eAeT*eT*eA*eA) [compound 1693071] | 68 | 66 | 
1693072: 5-10-5 MOE gapmer ACTTGGTGAATCTTTATTAA, linkages ssssosszzzzzsssssss (eA*e[5mC]*eT*eT*eGdG*dT*dG[ms]dA[ms]dA[ms]dT[ms]d[5mC][ms]dT*dT*dT*eA*eT*eT*eA*eA) [compound 1693072] | 82 | 61 | 
1736518: 6-10-4 MOE gapmer CTTGGTGAATCTTTATTAAA, linkages soossszzzssssssssss (e[5mC]*eTeTeG*eG*eT*dG[ms]dA[ms]dA[ms]dT*d[5mC]*dT*dT*dT*dA*dT*eT*eA*eA*eA) [compound 1736518] |  |  | IC50 (human APOE RNA [2]): 720 nM; APOE RNA (% UTC) (human APOE RNA [2]; 5 nM): 93 % UTC; APOE RNA (% UTC) (human APOE RNA [2]; 13 nM): 97 % UTC; APOE RNA (% UTC) (human APOE RNA [2]; 33 nM): 99 % UTC; APOE RNA (% UTC) (human APOE RNA [2]; 82 nM): 83 % UTC; APOE RNA (% UTC) (human APOE RNA [2]; 205 nM): 64 % UTC; APOE RNA (% UTC) (human APOE RNA [2]; 512 nM): 44 % UTC; APOE RNA (% UTC) (human APOE RNA [2]; 1,280 nM): 37 % UTC; APOE RNA (% UTC) (human APOE RNA [2]; 3,200 nM): 31 % UTC; APOE RNA (% UTC) (human APOE RNA [2]; 8,000 nM): 30 % UTC; APOE RNA (% UTC) (human APOE RNA [2]; 20,000 nM): 13 % UTC
1736519: 6-10-4 MOE gapmer CTTGGTGAATCTTTATTAAA, linkages sososszzzssssssssss (e[5mC]*eTeT*eGeG*eT*dG[ms]dA[ms]dA[ms]dT*d[5mC]*dT*dT*dT*dA*dT*eT*eA*eA*eA) [compound 1736519] |  |  | IC50 (human APOE RNA [2]): 340 nM; APOE RNA (% UTC) (human APOE RNA [2]; 5 nM): 107 % UTC; APOE RNA (% UTC) (human APOE RNA [2]; 13 nM): 104 % UTC; APOE RNA (% UTC) (human APOE RNA [2]; 33 nM): 91 % UTC; APOE RNA (% UTC) (human APOE RNA [2]; 82 nM): 75 % UTC; APOE RNA (% UTC) (human APOE RNA [2]; 205 nM): 53 % UTC; APOE RNA (% UTC) (human APOE RNA [2]; 512 nM): 42 % UTC; APOE RNA (% UTC) (human APOE RNA [2]; 1,280 nM): 25 % UTC; APOE RNA (% UTC) (human APOE RNA [2]; 3,200 nM): 15 % UTC; APOE RNA (% UTC) (human APOE RNA [2]; 8,000 nM): 16 % UTC; APOE RNA (% UTC) (human APOE RNA [2]; 20,000 nM): 5 % UTC
